These results are taken from patent US7981893B2, “Heteroaryl compounds, compositions thereof, and methods of treatment therewith” (Signal Pharmaceuticals, LLC, priority 2006, dated 2011).

Bounds are passed on as bounds.

T1 sequence (Q04759 whole entry): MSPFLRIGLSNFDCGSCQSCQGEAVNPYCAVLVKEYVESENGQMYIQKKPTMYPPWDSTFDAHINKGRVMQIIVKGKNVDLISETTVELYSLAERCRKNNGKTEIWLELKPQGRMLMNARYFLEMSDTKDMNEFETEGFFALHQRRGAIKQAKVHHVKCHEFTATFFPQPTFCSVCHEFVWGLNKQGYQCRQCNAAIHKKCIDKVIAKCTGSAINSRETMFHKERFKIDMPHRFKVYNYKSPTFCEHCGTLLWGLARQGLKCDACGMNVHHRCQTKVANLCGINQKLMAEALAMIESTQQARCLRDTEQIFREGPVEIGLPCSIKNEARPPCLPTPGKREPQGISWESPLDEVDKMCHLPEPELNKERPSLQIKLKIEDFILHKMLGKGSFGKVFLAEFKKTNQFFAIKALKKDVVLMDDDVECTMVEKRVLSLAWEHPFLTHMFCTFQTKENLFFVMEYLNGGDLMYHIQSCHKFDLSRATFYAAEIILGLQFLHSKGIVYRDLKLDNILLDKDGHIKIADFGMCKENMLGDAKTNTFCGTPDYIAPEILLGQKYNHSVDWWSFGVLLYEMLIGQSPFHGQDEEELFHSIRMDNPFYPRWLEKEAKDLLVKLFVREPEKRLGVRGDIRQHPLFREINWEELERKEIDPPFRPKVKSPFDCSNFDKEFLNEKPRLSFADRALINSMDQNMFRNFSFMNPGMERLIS

Tested on in one data set: not given
Test: not given
Details: not given
Regarding `COCCNc1ncc(-c2cnc3[nH]c(=O)n(CC4CCCCC4)c3n2)cn1` [Compound 212, 1-(Cyclohexylmethyl)-6-(2-(2-methoxyethylamino)pyrimidin-5-yl)-1H-imidazo[4,5-b]pyrazin-2(3H)-one], the melting point was > 250 °C.
Regarding `Cc1nc(-c2ccc(-c3cnc4[nH]c(=O)n(CCC5CCOCC5)c4n3)cc2)n[nH]1` [Compound 215, 6-(4-(5-methyl-1H-1,2,4-triazol-3-yl)phenyl)-1-(2-(tetrahydro-2H-pyran-4-yl)ethyl)-1H-imidazo[4,5-b]pyrazin-2(3H)-one], the melting point is 290 to 292 °C.
On the same count and under the same terms, the value for `O=c1[nH]c2ncc(-c3ccc(-c4ncc[nH]4)cc3)nc2n1CCC1CCOCC1` [Compound 216, 6-(4-(1H-imidazol-2-yl)phenyl)-1-(2-(tetrahydro-2H-pyran-4-yl)ethyl)-1H-imidazo[4,5-b]pyrazin-2(3H)-one] was 293 to 295 °C; that for `NCc1nc(-c2ccc(-c3cnc4[nH]c(=O)n(CCC5CCOCC5)c4n3)cc2)n[nH]1` [Compound 220, 6-(4-(5-(aminomethyl)-1H-1,2,4-triazol-3-yl)phenyl)-1-(2-(tetrahydro-2H-pyran-4-yl)ethyl)-1H-imidazo[4,5-b]pyrazin-2(3H)-one] was 258 to 260 °C; that for `O=c1[nH]c2ncc(-c3ccc4[nH]cnc4c3)nc2n1CCC1CCOCC1` [Compound 227, 6-(1H-benzo[d]imidazol-5-yl)-1-(2-(tetrahydro-2H-pyran-4-yl)ethyl)-1H-imidazo[4,5-b]pyrazin-2(3H)-one] was 264 to 265 °C.
In the case of `O=c1[nH]c2ncc(-c3cncnc3)nc2n1CC1CCCCC1` [Compound 230, 1-(Cyclohexylmethyl)-6-(pyrimidin-5-yl)-1H-imidazo[4,5-b]pyrazin-2(3H)-one], the melting point is > 260 °C.
Take `O=c1[nH]c2ncc(-c3ccc(F)nc3)nc2n1CC1CCOCC1` [Compound 231, 6-(6-Fluoropyridin-3-yl)-1-((tetrahydro-2H-pyran-4-yl)methyl)-1H-imidazo[4,5-b]pyrazin-2(3H)-one]: the melting point is 220 to 222 °C.
As to `Nc1ccc(-c2cnc3[nH]c(=O)n(CC4CCOCC4)c3n2)cn1` [Compound 232, 6-(6-Aminopyridin-3-yl)-1-((tetrahydro-2H-pyran-4-yl)methyl)-1H-imidazo[4,5-b]pyrazin-2(3H)-one], the melting point is > 260 °C.
As for `CNc1ccc(-c2cnc3[nH]c(=O)n(CC4CCOCC4)c3n2)cn1` [Compound 235, 6-(6-(Methylamino)pyridin-3-yl)-1-((tetrahydro-2H-pyran-4-yl)methyl)-1H-imidazo[4,5-b]pyrazin-2(3H)-one], the melting point was > 260 °C.
In the case of `Nc1ncc(-c2cnc3[nH]c(=O)n(CC4CCCCC4)c3n2)cn1` [Compound 236, 6-(2-aminopyrimidin-5-yl)-1-(cyclohexylmethyl)-1H-imidazo[4,5-b]pyrazin-2(3H)-one], the melting point was > 250 °C.
With `Cc1cc(-c2nc[nH]n2)ccc1-c1cnc2[nH]c(=O)n(CCC3CCOCC3)c2n1` [Compound 239, 6-(2-methyl-4-(1H-1,2,4-triazol-3-yl)phenyl)-1-(2-(tetrahydro-2H-pyran-4-yl)ethyl)-1H-imidazo[4,5-b]pyrazin-2(3H)-one], the melting point was 258 to 260 °C.
Take `CC(C)(O)c1ccc(-c2cnc3[nH]c(=O)n(CC4CCCCC4)c3n2)cn1` [Compound 240, 1-(cyclohexylmethyl)-6-(6-(2-hydroxypropan-2-yl)pyridin-3-yl)-1H-imidazo[4,5-b]pyrazin-2(3H)-one]: the melting point was > 250 °C.
Same read-out and setting: next, `C[C@H](c1ccccc1)n1c(=O)[nH]c2ncc(-c3ccc(-c4nc[nH]n4)cc3)nc21` [Compound 249, (R)-6-(4-(1H-1,2,4-triazol-3-yl)phenyl)-1-(1-phenylethyl)-1H-imidazo[4,5-b]pyrazin-2(3H)-one]: 258 to 260 °C.

A further data set concerns the target T1, PKCθ (Homo sapiens, UniProt Q04759).
T1 construct: purchased Invitrogen
In words: PKCθ IMAP Assay. The class given is biochemical. The note with it: IMAP fluorescence polarization screening assay, 35 μM ATP. On the procedure: The following is an example of an assay that can be used to determine the PKCθ inhibitory activity of a test compound. Reagents are prepared as follows:
Assay Buffer: 50 mM HEPES (pH 7.6), 10 mM MgCl, 0.1 mM EDTA, 5 mM MBP, 0.01% Triton, 1 mM DTT, 0.05 mg/ml phosphatidyl serine, 0.05 mg/ml diacylglycerol.
The final concentration of PKCθ (Invitrogen) is 0.5 nM. The final concentration of substrate (FAM-AKRRRLSSLRA) (Molecular Devices) is 100 nM. The final concentration of ATP in the reaction is 35 μM. The final concentration of DMSO in the reaction is 2.5%.
Enzyme is kept in 5 μl aliquots and stored at −80° C. prior to use. Test compound is allowed to pre-incubate with enzyme for 45 minutes before the reactions is initiated.
The reaction mixture consists of: 5 μl of test compound in 10% DMSO, 5 μl of 400 nM substrate (FAM-AKRRRLSSLRA), 5 μl of […] PKCθ, and 5 μl of 140 μM ATP (ATP is added to the reaction mixture last to initiate the reaction) per well.
The reaction is allowed to proceed for 60 minutes and is terminated by adding 30 μl per well of 90% Progressive A buffer/10% Progressive B buffer and a 1:400 dilution of binding beeds (Molecular Devices).
The reaction is given a binding incubation time of at least 30 minutes prior to reading the fluorescence polarization signal on an Analyst reader (the following detector settings are used: fluorescein excitation-485 nm, fluorescein emission-530 nm, fluorescein dichroic-505 nm).
(Polarisation of emitted light reports the rotation of a fluorescent probe.)
In the case of `C[C@H](c1ccccc1)n1c(=O)[nH]c2ncc(-c3cccc4ccccc34)nc21` [Compound 3, (R)-6-(naphthalen-1-yl)-1-(1-phenylethyl)-1H-imidazo[4,5-b]pyrazin-2(3H)-one], the IC50 is > 30 µM.
For the compound `C[C@@H](c1ccccc1)n1c(=O)[nH]c2ncc(-c3cccc4ccccc34)nc21` [Compound 7, (S)-6-(naphthalen-1-yl)-1-(1-phenylethyl)-1H-imidazo[4,5-b]pyrazin-2(3H)-one], the IC50 was > 30 µM.
The same measure, in the same setting: next, `CC(C)[C@H](CO)n1c(=O)[nH]c2ncc(-c3ccccc3)nc21` [Compound 9, (R)-1-(1-hydroxy-3-methylbutan-2-yl)-6-phenyl-1H-imidazo[4,5-b]pyrazin-2(3H)-one]: > 30 µM; `CC(C)[C@H](CO)n1c(=O)[nH]c2ncc(-c3cccc4ncccc34)nc21` [Compound 12, (R)-1-(1-hydroxy-3-methylbutan-2-yl)-6-(quinolin-5-yl)-1H-imidazo[4,5-b]pyrazin-2(3H)-one]: > 30 µM; `C[C@H](c1ccccc1)n1c(=O)[nH]c2nccnc21` [Compound 16, (R)-1-(1-phenylethyl)-1H-imidazo[4,5-b]pyrazin-2(3H)-one]: > 30 µM.
Take `C[C@@H](c1ccccc1)n1c(=O)[nH]c2nccnc21` [Compound 17, (S)-1-(1-phenylethyl)-1H-imidazo[4,5-b]pyrazin-2(3H)-one]: the IC50 was > 30 µM.
In the case of `COc1ccc(C(C)C)cc1-c1cnc2[nH]c(=O)n(C(C)C)c2n1` [Compound 18, 1-isopropyl-6-(5-isopropyl-2-methoxyphenyl)-1H-imidazo[4,5-b]pyrazin-2(3H)-one], the 50% inhibitory concentration (IC50) was 5.1 to 10 µM.
As to `COc1ccc(C(C)C)cc1-c1cnc2[nH]c(=O)n(C3CCCCC3)c2n1` [Compound 19, 1-cyclohexyl-6-(5-isopropyl-2-methoxyphenyl)-1H-imidazo[4,5-b]pyrazin-2(3H)-one], the IC50 was > 30 µM.
On to `O=c1[nH]c2ncc(-c3cccc4ncccc34)nc2[nH]1` [Compound 20, 5-(quinolin-5-yl)-1H-imidazo[4,5-b]pyrazin-2(3H)-one], for which the IC50 was > 30 µM.
In the case of `COc1ccc(C(C)C)cc1-c1cnc2[nH]c(=O)n(CC(C)C)c2n1` [Compound 21, 1-isobutyl-6-(5-isopropyl-2-methoxyphenyl)-1H-imidazo[4,5-b]pyrazin-2(3H)-one], the IC50 is > 30 µM.
On the same count and under the same terms, the value for `COc1ccc(C(C)C)cc1-c1cnc2[nH]c(=O)n(CCO)c2n1` [Compound 22, 1-(2-hydroxyethyl)-6-(5-isopropyl-2-methoxyphenyl)-1H-imidazo[4,5-b]pyrazin-2(3H)-one] was > 30 µM.
For `COc1ccc(C(C)C)cc1-c1cnc2[nH]c(=O)n(C3CCOCC3)c2n1` [Compound 23, 6-(5-isopropyl-2-methoxyphenyl)-1-(tetrahydro-2H-pyran-4-yl)-1H-imidazo[4,5-b]pyrazin-2(3H)-one], the IC50 was > 30 µM.
For `COc1ccc(C(C)C)cc1-c1cnc2[nH]c(=O)n([C@H]3CCOC3)c2n1` [Compound 29, (S)-6-(5-isopropyl-2-methoxyphenyl)-1-(tetrahydrofuran-3-yl)-1H-imidazo[4,5-b]pyrazin-2(3H)-one], the IC50 is > 30 µM.
Consider `COc1ccc(C(C)C)cc1-c1cnc2[nH]c(=O)n(C3CCCC3)c2n1` [Compound 31, 1-cyclopentyl-6-(5-isopropyl-2-methoxyphenyl)-1H-imidazo[4,5-b]pyrazin-2(3H)-one], for which the IC50 was > 30 µM.
Same read-out and setting: the value for `COc1ccc(C(C)C)cc1-c1cnc2[nH]c(=O)n([C@@H]3CCOC3)c2n1` [Compound 32, (R)-6-(5-isopropyl-2-methoxyphenyl)-1-(tetrahydrofuran-3-yl)-1H-imidazo[4,5-b]pyrazin-2(3H)-one] was 10.1 to 20 µM.
On to `COc1ccc(C(C)C)cc1-c1cnc2[nH]c(=O)n(CC3CC3)c2n1` [Compound 33, 1-(cyclopropylmethyl)-6-(5-isopropyl-2-methoxyphenyl)-1H-imidazo[4,5-b]pyrazin-2(3H)-one], for which the IC50 was > 30 µM.
In the case of `COc1ccc(C(C)C)cc1-c1cnc2[nH]c(=O)n(CC3CCCC3)c2n1` [Compound 34, 1-(cyclopentylmethyl)-6-(5-isopropyl-2-methoxyphenyl)-1H-imidazo[4,5-b]pyrazin-2(3H)-one], the IC50 was > 30 µM.
Take `COc1ccc(C(C)C)cc1-c1cnc2[nH]c(=O)n(CC3CCCCC3)c2n1` [Compound 35, 1-(cyclohexylmethyl)-6-(5-isopropyl-2-methoxyphenyl)-1H-imidazo[4,5-b]pyrazin-2(3H)-one]: the IC50 was > 30 µM.
On the same count and under the same terms, next, `COc1ccc(C(C)C)cc1-c1cnc2[nH]c(=O)n(CC(C)(C)C)c2n1` [Compound 36, 6-(5-isopropyl-2-methoxyphenyl)-1-neopentyl-1H-imidazo[4,5-b]pyrazin-2(3H)-one]: > 30 µM; `CC(C)c1cccc(-c2cnc3[nH]c(=O)n(C(C)C)c3n2)c1` [Compound 37, 1-isopropyl-6-(3-isopropylphenyl)-1H-imidazo[4,5-b]pyrazin-2(3H)-one]: > 30 µM.

In general, melting point refers to the temperature, or range, at which the solid turns liquid. Broadly, the IC50 is the concentration that gives 50% inhibition. The low end stands for higher potency, the high end for lower potency.
